Each structure is given as a SMILES string. pIC50: −log10 of the molar value.

As a reminder, the pIC50 is the IC50 on a negative log10 scale, so that one unit is a factor of ten.

The target in the assay is T1, recombinant human GST-Syk (Homo sapiens, UniProt P43405).
T1 construct: purchased Carna Biosciences 08-176
As to the kind of experiment: Homogeneous Time-Resolved Fluorescence (HTRF) assay for the recombinant human Syk enzyme. It counts as biochemical. The conditions noted are these: recombinant human GST-Syk 5 pM, ATP 25 μM, 10-dose titration 10 μM to 0.508 nM; read-out: rhSYK Activity IC50. Summed up: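 Detection used time-resolved fluorescence 30 min after adding a quench mix (40 mM EDTA, 15 mM Tris pH 7.5, 0.01% Tween 20) containing 2 nM Europium anti-pTyr antibody and 70 nM streptavidin-APC. This followed 45 min of room-temperature peptide phosphorylation by recombinant GST-tagged human Syk.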
For orientation: In TR-FRET formats the signal depends on donor and acceptor labels being close together.
As to `Cc1cc(Nc2ncc(F)c(C(F)F)n2)cc(-c2cn(C3CCCCC3O)nn2)c1` (single isomer, unassigned) [Example 7.30, 2-[4-(3-{[4-(difluoromethyl)-5-fluoropyrimidin-2-yl]amino}-5-methylphenyl)-1H-1,2,3-triazol-1-yl]cyclohexanol], the negative-log IC50 (pIC50) was 8.00.
Then `Cc1cc(Nc2nccc(C(F)F)n2)cc(-c2cn(C3CCCC(C)(O)C3O)nn2)c1` (single isomer, unassigned) [Example 29.3, 3-(4-(3-((4-(Difluoromethyl)pyrimidin-2-yl)amino)-5-methylphenyl)-1H-1,2,3-triazol-1-yl)-1-methylcyclohexane-1,2-diol], with 7.98.
On to `COCC(C)(C)NC(=O)Cn1cc(-c2cc(C)cc(Nc3nccc(C(F)(F)F)n3)c2)nn1` [Example 5.67, N-(2-methoxy-1,1-dimethylethyl)-2-[4-(3-methyl-5-{[4-(trifluoromethyl)pyrimidin-2-yl]amino}phenyl)-1H-1,2,3-triazol-1-yl]acetamide], for which the pIC50 is 6.53.
On to `Cc1cc(Nc2nccc(C(F)F)n2)cc(-c2cn(CC3CNC(=O)C3)nn2)c1` (single isomer, unassigned) [Example 28.1, 4-((4-(3-((4-(difluoromethyl)pyrimidin-2-yl)amino)-5-methylphenyl)-1H-1,2,3-triazol-1-yl)methyl)pyrrolidin-2-one], for which the negative logarithm of the IC50 (pIC50) is 8.08.
As for `Cc1cc(Nc2cc(C(F)(F)F)ccn2)nc(-c2cn(C(C)C(=O)NC(C)c3cnn(-c4ccccc4F)c3)nn2)c1` (stereo not shown) [Example 1.35, N-{1-[1-(2-fluorophenyl)-1H-pyrazol-4-yl]ethyl}-2-[4-(4-methyl-6-{[4-(trifluoromethyl)pyridin-2-yl]amino}pyridin-2-yl)-1H-1,2,3-triazol-1-yl]propanamide], the pIC50 is 6.77.
Turning to `Cc1cc(Nc2cc(OCCO)ccn2)nc(-c2cn(C(C)c3ccc(C(=O)O)cc3)nn2)c1` (stereo not shown) [Example 2.4, 4-{1-[4-(6-{[4-(2-hydroxyethoxy)pyridin-2-yl]amino}-4-methylpyridin-2-yl)-1H-1,2,3-triazol-1-yl]ethyl}benzoic acid], the pIC50 is 7.55.
In the case of `Cc1cc(Nc2cc(C(F)(F)F)ccn2)nc(-c2cn(C(C)C(O)CC#N)nn2)c1` (stereo not shown) [Example 4.10, 3-hydroxy-4-[4-(4-methyl-6-{[4-(trifluoromethyl)pyridin-2-yl]amino}pyridin-2-yl)-1H-1,2,3-triazol-1-yl]pentanenitrile], the pIC50 is 8.24.
As for `Cc1cc(Nc2cc(C(F)F)ccn2)nc(-c2cn(C(C)C(C)(O)CO)nn2)c1` (single isomer, unassigned) [Example 30.6, 3-[4-(6-{[4-(difluoromethyl)pyridin-2-yl]amino}-4-methylpyridin-2-yl)-1H-1,2,3-triazol-1-yl]-2-methylbutane-1,2-diol], the pIC50 is 8.19.
As for `Cc1cc(Nc2cc(C(F)(F)F)ccn2)nc(-c2cn(C(C)C(=O)N3CCc4[nH]c5c(Cl)cccc5c4C3)nn2)c1` (stereo not shown) [Example 1.41, 6-{1-[2-(6-chloro-1,3,4,5-tetrahydro-2H-pyrido[4,3-b]indol-2-yl)-1-methyl-2-oxoethyl]-1H-1,2,3-triazol-4-yl}-4-methyl-N-[4-(trifluoromethyl)pyridin-2-yl]pyridin-2-amine], the pIC50 was 6.88.
Turning to `Cc1cc(Nc2cc(C(F)(F)F)ccn2)nc(-c2cn(C3CCCCC(O)C3O)nn2)c1` (single isomer, unassigned) [Example 10.5, 3-[4-(4-methyl-6-{[4-(trifluoromethyl)pyridin-2-yl]amino}pyridin-2-yl)-1H-1,2,3-triazol-1-yl]cycloheptane-1,2-diol], the pIC50 was 8.59.
Take `Cc1cc(Nc2cc(C(F)(F)F)ccn2)nc(-c2cn(CC(O)CN3CCCC3=O)nn2)c1` (stereo not shown) [Example 4.30, 1-{2-hydroxy-3-[4-(4-methyl-6-{[4-(trifluoromethyl)pyridin-2-yl]amino}pyridin-2-yl)-1H-1,2,3-triazol-1-yl]propyl}pyrrolidin-2-one]: the negative logarithm of the IC50 (pIC50) is 7.58.
For `Cc1cc(Nc2nccc(C(F)F)n2)cc(-c2cn(CC(C)(O)CO)nn2)c1` (single isomer, unassigned) [Example 21.7, 3-[4-(3-{[4-(difluoromethyl)pyrimidin-2-yl]amino}-5-methylphenyl)-1H-1,2,3-triazol-1-yl]-2-methylpropane-1,2-diol], the negative-log IC50 (pIC50) was 8.14.
Then `Cc1cc(Nc2cc(C(F)(F)F)ccn2)nc(-c2cn(C(CO)c3ccc(C(=O)O)cc3)nn2)c1` (stereo not shown) [Example 3.17, 4-{2-hydroxy-1-[4-(4-methyl-6-{[4-(trifluoromethyl)pyridin-2-yl]amino}pyridin-2-yl)-1H-1,2,3-triazol-1-yl]ethyl}benzoic acid], with 10.00.
Then `Cc1cc(Nc2cc(C(F)(F)F)ccn2)nc(-c2cn(C/C=C/C(=O)O)nn2)c1` [Example 5.45, (2E)-4-[4-(4-methyl-6-{[4-(trifluoromethyl)pyridin-2-yl]amino}pyridin-2-yl)-1H-1,2,3-triazol-1-yl]but-2-enoic acid], with 8.08; and `Cc1cc(Nc2ncc(F)c(C(F)F)n2)cc(-c2cn(CC(C)(O)C(C)(C)O)nn2)c1` (stereo not shown) [Example 21.15, 1-[4-(3-{[4-(difluoromethyl)-5-fluoropyrimidin-2-yl]amino}-5-methylphenyl)-1H-1,2,3-triazol-1-yl]-2,3-dimethylbutane-2,3-diol], with 7.32.
Regarding `COc1cc2c(cc1OC)CN(C(=O)C(C)n1cc(-c3cc(C)cc(Nc4cc(C(F)(F)F)ccn4)n3)nn1)C(C)C2` (stereo not shown) [Example 1.34, 6-{1-[2-(6,7-dimethoxy-3-methyl-3,4-dihydroisoquinolin-2(1H)-yl)-1-methyl-2-oxoethyl]-1H-1,2,3-triazol-4-yl}-4-methyl-N-[4-(trifluoromethyl)pyridin-2-yl]pyridin-2-amine], the negative logarithm of the IC50 (pIC50) is 5.57.
With `Cc1cc(Nc2cc(C(F)(F)F)ccn2)nc(-c2cn([C@@H](C)C(=O)NCC(=O)O)nn2)c1` [Example 3.15, N-{(2S)-2-[4-(4-methyl-6-{[4-(trifluoromethyl)pyridin-2-yl]amino}pyridin-2-yl)-1H-1,2,3-triazol-1-yl]propanoyl}glycine], the pIC50 was 8.05.
With `Cc1cc(Nc2ncc(F)c(C(F)F)n2)cc(-c2cn(C3CCCCC3(C)O)nn2)c1` (single isomer, unassigned) [Example 7.25, 2-[4-(3-{[4-(difluoromethyl)-5-fluoropyrimidin-2-yl]amino}-5-methylphenyl)-1H-1,2,3-triazol-1-yl]-1-methylcyclohexanol], the pIC50 was 7.42.
Regarding `Cc1cc(Nc2cc(C(F)(F)F)ccn2)nc(-c2cn(C(C)C(=O)NCCc3cccc(Oc4ccccc4)c3)nn2)c1` (stereo not shown) [Example 1.36, 2-[4-(4-methyl-6-{[4-(trifluoromethyl)pyridin-2-yl]amino}pyridin-2-yl)-1H-1,2,3-triazol-1-yl]-N-[2-(3-phenoxyphenyl)ethyl]propanamide], the pIC50 is 5.84.
Consider `Cc1cc(Nc2cc(C(F)(F)F)ccn2)nc(-c2cn(C/C=C/c3ccncc3)nn2)c1` [Example 5.33, 4-methyl-6-{1-[(2E)-3-pyridin-4-ylprop-2-en-1-yl]-1H-1,2,3-triazol-4-yl}-N-[4-(trifluoromethyl)pyridin-2-yl]pyridin-2-amine], for which the pIC50 is 7.23.
The value for `Cc1cc(Nc2nccc(C(F)F)n2)cc(-c2cn(C(C)C(C)(O)CO)nn2)c1` (single isomer, unassigned) [Example 30.1, 3-(4-(3-((4-(Difluoromethyl)pyrimidin-2-yl)amino)-5-methylphenyl)-1H-1,2,3-triazol-1-yl)-2-methylbutane-1,2-diol] was 7.91; that for `Cc1cc(Nc2cc(C(F)F)ccn2)nc(-c2cn(CC3CNC(=O)O3)nn2)c1` (single isomer, unassigned) [Example 7.12, 5-((4-(6-((4-(difluoromethyl)pyridin-2-yl)amino)-4-methylpyridin-2-yl)-1H-1,2,3-triazol-1-yl)methyl)oxazolidin-2-one] was 8.70.
As for `Cc1cc(Nc2cc(C(F)F)ccn2)nc(-c2cn(C3CCCCC3O)nn2)c1` (single isomer, unassigned) [Example 7.23, 2-[4-(6-{[4-(difluoromethyl)pyridin-2-yl]amino}-4-methylpyridin-2-yl)-1H-1,2,3-triazol-1-yl]cyclohexanol], the pIC50 was 8.41.
Then `CC/C=C/Cn1cc(-c2cc(C)cc(Nc3cc(C(F)(F)F)ccn3)n2)nn1` [Example 5.31, 4-methyl-6-{1-[(2E)-pent-2-en-1-yl]-1H-1,2,3-triazol-4-yl}-N-[4-(trifluoromethyl)pyridin-2-yl]pyridin-2-amine], with 7.31; and `Cc1cc(Nc2cc(C(F)(F)F)ccn2)nc(-c2cn(CC(C)(O)CO)nn2)c1` (stereo not shown) [Example 10.15, 2-methyl-3-[4-(4-methyl-6-{[4-(trifluoromethyl)pyridin-2-yl]amino}pyridin-2-yl)-1H-1,2,3-triazol-1-yl]propane-1,2-diol], with 8.14.
Consider `Cc1cc(Nc2cc(C(F)(F)F)ccn2)nc(-c2cn(Cc3[nH]cnc3C)nn2)c1` [Example 5.106, 4-methyl-6-{1-[(4-methyl-1H-imidazol-5-yl)methyl]-1H-1,2,3-triazol-4-yl}-N-[4-(trifluoromethyl)pyridin-2-yl]pyridin-2-amine], for which the negative logarithm of the IC50 (pIC50) is 8.80.
In the case of `Cc1cc(Nc2cc(C(F)(F)F)ccn2)nc(-c2cn(C(C)CO)nn2)c1` (stereo not shown) [Example 18.1, 2-[4-(4-Methyl-6-{[4-(trifluoromethyl)pyridin-2-yl]amino}pyridin-2-yl)-1H-1,2,3-triazol-1-yl]propan-1-ol], the negative-log IC50 (pIC50) was 8.66.
Then `Cc1cc(Nc2nccc(C(F)F)n2)cc(-c2cn(C3CCCCC3O)nn2)c1` (stereo not shown) [Example 4.35, 2-[4-(3-{[4-(difluoromethyl)pyrimidin-2-yl]amino}-5-methylphenyl)-1H-1,2,3-triazol-1-yl]cyclohexanol], with 7.96.

For the origin of these results see patent US9586931B2 (Merck Sharp & Dohme Corp., priority 2012, dated 2017).
